{"source": "patent US20080063714A1", "about": "“Compositions for Encapsulation and Controlled Release” (priority 2003, published 2008)", "molecules": {"B1": {"name": "Comparative Example: Unencapsulated adenosine deaminase, approximately 110 μg/mL in 0.1% trifluoroacetic acid in water (pH 2.0) (protein, UniProt P56658 2-363, looked up)", "Adenosine deaminase": "AQTPAFNKPKVELHVHLDGAIKPETILYYGRKRGIALPADTPEELQNIIGMDKPLSLPEFLAKFDYYMPAIAGCREAVKRIAYEFVEMKAKDGVVYVEVRYSPHLLANSKVEPIPWNQAEGDLTPDEVVSLVNQGLQEGERDFGVKVRSILCCMRHQPSWSSEVVELCKKYREQTVVAIDLAGDETIEGSSLFPGHVKAYAEAVKSGVHRTVHAGEVGSANVVKEAVDTLKTERLGHGYHTLEDATLYNRLRQENMHFEVCPWSSYLTGAWKPDTEHPVVRFKNDQVNYSLNTDDPLIFKSTLDTDYQMTKNEMGFTEEEFKRLNINAAKSSFLPEDEKKELLDLLYKAYGMPSPASAEQCL"}}, "key": {"[1]": {"test": "Penicillin G degradation in acidic solution pH 2.0", "format": "physicochemical", "settings": "pH 2.0, 2 hours, 37° C.", "from_the_text": "For example, particles of the present invention can protect penicillin G from degradation in acidic environments. When exposed to an acidic environment, such as a solution with pH less than about 5.0, penicillin G is rapidly degraded. […] Penicillin G may be encapsulated in particles of the present invention, such as those comprising triazine derivatives of formula I, and protected from degradation in acidic environment. For example, penicillin G encapsulated in crosslinked particles comprising 4-{[4-(4-carboxyanilino)-6-(3-methyl-1H-imidazol-3-ium-1-yl)-1,3,5-triazin-2-yl]amino}benzoate and a mixture of magnesium and aluminum cations may be exposed to an acidic solution with a pH of 2.0 for 2 hours at 37° C."}, "[2]": {"target": "T1, adenosine deaminase (Bos taurus, UniProt P56658)", "T1 construct": "purchased Sigma lot no; 70H8145 (catalogue number not given)", "T1 sequence (P56658 2-363 limits assumed)": "B1 Adenosine deaminase", "test": "Adenosine deaminase activity (inosine by HPLC) after exposure to acid or water", "format": "biochemical", "settings": "after 2 hours in 0.1% trifluoroacetic acid pH 2.0 at room temperature", "description": "One portion of the beads was added to a vial containing 20 ml of a 0.1% trifluoroacetic acid in water (pH of 2.0) test solution. The beads were exposed to the acidic test solution at room temperature for two hours. The acidic test solution was then decanted and discarded. The beads were rinsed with 10 mL deionized water. The water was then decanted and discarded. Phosphate buffer (20 mL, pH of 7.0 with 0.15 M NaCl) was added to the vial with the remaining beads and the vial was agitated on a wrist action shaker for one hour to dissolve the beads. The resulting solution was filtered through a 0.22 μm poly(vinylidene fluoride) filter.\nThe inosine peak area was 733 units.\nThe other portion of the beads was added to a vial containing 20 mL of deionized water (pH approx. 7.5). The beads were exposed to the water solution for two hours. The water was then decanted and discarded. Phosphate buffer (20 mL, pH of 7.0 with 0.15 M NaCl) was added to the vial with the remaining beads and the vial was agitated on a wrist action shaker for one hour to dissolve the beads. […] Adenosine deaminase activity was determined as described above. […]\nAdenosine deaminase was added to a 20 mL of 0.1% trifluoroacetic acid in water (pH of 2.0) solution to prepare an acidic test solution with a concentration of approximately 110 μg/mL adenosine deaminase. […] Adenosine deaminase activity was determined as described above. […]"}}, "data": [{"molecule": "CC1(C)S[C@@H]2[C@H](NC(=O)Cc3ccccc3)C(=O)N2[C@H]1C(=O)O", "note": "[Penicillin G]", "values": [{"measurement": "Degradation of penicillin G in acidic solution", "setting": "[1]", "result": "almost completely degraded"}]}, {"molecule": "B1", "values": [{"measurement": "Adenosine deaminase activity, inosine peak area", "setting": "[2]", "result": 5, "unit": "units"}]}]}
